According to patent publication US7115633B2, “Benzosuberonylpiperdine compounds as analgesics” (GlaxoSmithKline S.p.A., priority 2000, dated 2006):

melting point	SMILES
> 250 °C	Cc1cccc(C2CCN(C[C@H]3CCc4c(Br)cccc4[C@H](O)C3)CC2)c1.Cl (racemic)
> 250 °C	Cc1cccc(C2CCN(C[C@@H]3CCc4c(C)cccc4[C@H](O)C3)CC2)c1.Cl (racemic)

Second part, the compound before the results:

SMILES	melting point
Cl.O[C@@H]1C[C@H](CN2CCC(c3ccccc3Cl)CC2)CCc2c(F)cccc21 (racemic)	245 to 247 °C
Cc1ccccc1C1CCN(CC2CCc3c(F)cccc3C(O)C2)CC1.Cl (racemic)	231 to 233 °C
Cc1cccc2c1CC[C@@H](CN1CCC(c3ccccc3Cl)CC1)C[C@H]2O.Cl (racemic)	> 250 °C
